The source made the active and inactive calls. The rule behind the calls is not given here.
Assays:
[1] = Mutagenicity in Salmonella typhimurium TA1537 at 5 to 100 mM incubated for 96 hrs in absence of rat liver s9 microsomes by Ames test; format: toxicity; conditions: salmonella enterica subsp. enterica serovar typhimurium, 100000 µM, dose 5-100 mM
[2] = Mutagenicity in Salmonella typhimurium TA100 at 5 to 100 mM incubated for 96 hrs in absence of rat liver s9 microsomes by Ames test; format: toxicity; conditions: salmonella enterica subsp. enterica serovar typhimurium, 100000 µM, dose 5-100 mM
[3] = Mutagenicity in Salmonella typhimurium TA98 at 5 to 100 mM incubated for 96 hrs in presence of rat liver s9 microsomes by Ames test; format: toxicity, Microsome; conditions: salmonella enterica subsp. enterica serovar typhimurium, 100000 µM, dose 5-100 mM
in vitro = conditions: human, Caco-2
Description: Apparent permeability of the compound in human Caco-2 cells across apical to basolateral side

[4] = Mutagenicity in Salmonella typhimurium TA98 at 5 to 100 mM incubated for 96 hrs in absence of rat liver s9 microsomes by Ames test; format: toxicity; conditions: salmonella enterica subsp. enterica serovar typhimurium, 100000 µM, dose 5-100 mM
[5] = Mutagenicity in Salmonella typhimurium TA1537 at 5 to 100 mM incubated for 96 hrs in presence of rat liver s9 microsomes by Ames test; format: toxicity, Microsome; conditions: salmonella enterica subsp. enterica serovar typhimurium, 100000 µM, dose 5-100 mM
[6] = Mutagenicity in Salmonella typhimurium TA100 at 5 to 100 mM incubated for 96 hrs in presence of rat liver s9 microsomes by Ames test; format: toxicity, Microsome; conditions: salmonella enterica subsp. enterica serovar typhimurium, 100000 µM, dose 5-100 mM
Hepatocyte [7] = assay: Anti-MASH activity in fatty acid induced human iPSC derived Hepatocyte assessed as reduction in lipid level in hepatocyte at 10 uM measured after 48 hrs; format: functional, cell-based
[8] = Mutagenicity in Salmonella typhimurium TA1535 at 5 to 100 mM incubated for 96 hrs in absence of rat liver s9 microsomes by Ames test; format: toxicity; conditions: salmonella enterica subsp. enterica serovar typhimurium, 100000 µM, dose 5-100 mM
[9] = Mutagenicity in Salmonella typhimurium TA1535 at 5 to 100 mM incubated for 96 hrs in presence of rat liver s9 microsomes by Ames test; format: toxicity, Microsome; conditions: salmonella enterica subsp. enterica serovar typhimurium, 100000 µM, dose 5-100 mM
Hepatocyte [10] = assay: Anti-MASH activity in fatty acid induced human iPSC derived Hepatocyte assessed as reduction in lipid droplet size in hepatocyte at 10 uM measured after 48 hrs; format: functional, cell-based
[11] = Metabolic stability in human liver microsomes assessed as clearance; format: ADME, Microsome

SMILES | Activity [1] | Activity [2] | Activity [3] | Papp A→B (in vitro) [×10⁻⁶ cm/s] | Activity [4] | Activity [5] | Activity [6] | Activity (Hepatocyte [7]) | Activity [8] | Activity [9] | Activity (Hepatocyte [10]) | CLH [11] [µL/min/mg]
CSc1ccccc1[C@H]1CCCN1C(=O)CNC(=O)N(Cc1ccc(N)c(Cl)c1)Cc1nnn(C)n1 | Non-toxic | Non-toxic | Non-toxic | 5 | Non-toxic | Non-toxic | Non-toxic | Active | Non-toxic | Non-toxic | Active | –
Cn1nnc(CN(Cc2ccc(N)c(Cl)c2)C(=O)NCC(=O)N2CCC[C@@H]2c2ccccc2Br)n1 | Non-toxic | Non-toxic | Non-toxic | 6.6 | Non-toxic | Non-toxic | Non-toxic | – | Non-toxic | Non-toxic | – | –
CC(C)c1cc(Oc2c(Cl)cc(-n3nc(C#N)c(=O)[nH]c3=O)cc2Cl)n[nH]c1=O | – | – | – | – | – | – | – | Active | – | – | Active | –
CSc1ccccc1[C@H]1CCCN1C(=O)CNC(=O)N(Cc1cnc(N)nc1)Cc1ncc(C)s1 | Non-toxic | Non-toxic | Non-toxic | 0.8 | Non-toxic | Non-toxic | Non-toxic | – | Non-toxic | Non-toxic | – | 60
